Target: NSD2 [1-1365] (Homo sapiens (Human), UniProt O96028)
Assay: LC-MS/MS-based NSD2 enzymatic assay (SAH production)
Type: biochemical
Conditions: NSD2 biochemical activity, class symbols; read-out: NSD2 IC50
Description: LC-MS/MS-Based NSD2 Enzymatic Assay
This assay employed LC-MS/MS technology to monitor the SAH production from the NSD2 enzymatic reaction. The enzymatic reaction was performed in white proxiplate plus 384-well microplate (Perkin Elmer). The reaction mixture (10 μL) were composed of 8 nM NSD2 [1-1365], […] SAM (USB, 10601) and 400 nM nucleosome (purified from mouse liver) in reaction buffer (20 mM Tris-HCl, pH at 8.0, 0.01% Tween 20, 10 mM MgCl2, 50 mM NaCl, 1 mM DTT, 1 mM TCEP (pH7.5)). After 90 min incubation at room temperature, 3 μL quenching solution containing 2.5% TFA with 320 nM d4-SAH was added to stop the reaction.
For the inhibition assay, compound solutions were transferred into the wells by Mosquito™ (TTP LabTech). The inhibition assays were carried out by preincubating various concentrations of the inhibitor with 5 uL reaction mixture containing 16 nM NSD2 [1-1365] and 2 uM SAM (USB, 10601) in reaction buffer. After 20 min preincubation, 5 uL solution containing 800 nM nucleosome (purified from mouse liver) in reaction buffer was added to initiate the reaction. The reaction was stopped by 3 μL quenching solution containing 2.5% TFA with 320 nM d4-SAH after 90 min.
The SAH production from the enzymatic assays were monitored by LC-MS/MS on an API 4000 triple quadrupole mass spec with Turbolon Spray (Applied Biosystem) coupled with Prominenece UFLC(Shimazu). Liquid chromatography was performed on a Chromolith FastGradient HPLC column (RP-18e, 25-2 mm, from Merck) at a flow rate of 0.8 ml/min. The column was connected directly to the turbo ion electrospray operating in the positive-ion mode. Mobile phase A is 0.1% FA and 2% methanol in water and mobile phase B is 0.1% FA in ACN. Injection volume was 3 μl and the autosampler was kept at 4 degree. SAH and d4-SAH were simultaneously monitored. Data were acquired and processed by Analyst software.
To quantify the formed SAH, d4-SAH was added as internal standard (IS). A series of SAH (Sigma, A9384) solution at varying concentration (1-500 nM in reaction buffer) was mixed with quenching solution mentioned above. Then LC-MS/MS was carried out on API 4000 LC/MS/MS system to detect both SAH and d4-SAH. The plot of SAH peak area/IS peak area vs SAH concentration was used to generate the normalization factor of SAH. The SAH production from real enzymatic reaction was derived from the standard curve of SAH. The down-limit of our system for the detection of SAH is around 1-2 nM, and the linear range can reach up to 500 nM.

Chain of NSD2 [1-1365] (O96028 whole entry): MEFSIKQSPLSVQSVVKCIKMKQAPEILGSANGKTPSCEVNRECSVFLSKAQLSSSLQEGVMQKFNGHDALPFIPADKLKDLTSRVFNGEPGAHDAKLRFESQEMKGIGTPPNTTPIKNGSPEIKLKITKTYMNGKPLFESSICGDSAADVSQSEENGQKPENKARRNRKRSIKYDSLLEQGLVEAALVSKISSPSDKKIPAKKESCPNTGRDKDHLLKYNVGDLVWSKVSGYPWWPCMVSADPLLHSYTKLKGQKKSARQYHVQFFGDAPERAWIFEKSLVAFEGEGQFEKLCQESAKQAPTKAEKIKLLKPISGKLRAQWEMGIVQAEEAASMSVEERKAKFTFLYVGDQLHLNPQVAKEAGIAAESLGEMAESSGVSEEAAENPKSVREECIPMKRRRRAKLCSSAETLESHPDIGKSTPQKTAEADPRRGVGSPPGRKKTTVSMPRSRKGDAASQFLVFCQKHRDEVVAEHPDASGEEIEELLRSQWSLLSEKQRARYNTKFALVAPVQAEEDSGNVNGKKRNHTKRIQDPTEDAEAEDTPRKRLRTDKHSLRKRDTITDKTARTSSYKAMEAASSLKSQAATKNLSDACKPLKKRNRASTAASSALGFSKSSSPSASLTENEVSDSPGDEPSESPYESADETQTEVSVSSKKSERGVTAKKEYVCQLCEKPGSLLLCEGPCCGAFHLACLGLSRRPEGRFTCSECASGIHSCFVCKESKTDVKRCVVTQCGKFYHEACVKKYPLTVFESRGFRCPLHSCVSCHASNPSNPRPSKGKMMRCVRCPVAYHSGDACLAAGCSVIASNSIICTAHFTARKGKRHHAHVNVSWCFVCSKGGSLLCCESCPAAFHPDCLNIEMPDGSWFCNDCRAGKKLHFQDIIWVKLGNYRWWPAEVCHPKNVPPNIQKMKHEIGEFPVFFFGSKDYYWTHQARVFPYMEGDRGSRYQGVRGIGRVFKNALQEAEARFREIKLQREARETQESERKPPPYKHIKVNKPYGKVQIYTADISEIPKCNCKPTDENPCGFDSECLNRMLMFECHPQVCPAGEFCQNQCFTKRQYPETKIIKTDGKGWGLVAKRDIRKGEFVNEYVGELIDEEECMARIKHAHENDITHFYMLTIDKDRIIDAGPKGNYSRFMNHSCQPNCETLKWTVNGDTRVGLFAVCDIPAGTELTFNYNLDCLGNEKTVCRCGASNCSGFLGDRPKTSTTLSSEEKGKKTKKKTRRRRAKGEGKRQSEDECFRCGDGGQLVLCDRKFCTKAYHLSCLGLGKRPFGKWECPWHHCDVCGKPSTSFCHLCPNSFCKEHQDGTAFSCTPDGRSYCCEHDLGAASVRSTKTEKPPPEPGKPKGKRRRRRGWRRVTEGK

IC50 | Structure (SMILES)
10 to 1000 nM | Nc1ncnc2c1ncn2Cc1cc(-c2ccc3c(c2)CCO3)ncc1N1CC[C@@H](F)[C@@H](N)C1 [Example 14, 9-((5-((3S,4R)-3-amino-4-fluoropiperidin-1-yl)-2-(2,3-dihydrobenzofuran-5-yl)pyridin-4-yl)methyl)-9H-purin-6-amine]
10 to 1000 nM | COc1ccc(-c2cc(Cn3cnc4c(N)ncnc43)c(N3C[C@H](N)CC(F)(F)C3)cn2)cc1F [Example 16, (R)-9-((5-(5-amino-3,3-difluoropiperidin-1-yl)-2-(3-fluoro-4-methoxyphenyl)pyridin-4-yl)methyl)-9H-purin-6-amine]
> 1000 nM | N#CC1CCN(c2cnc(-c3ccc(F)c(F)c3)cc2Cn2cnc3c(N)ncnc32)CC1N (stereo not shown) [Example 18, 3-amino-1-(4-((6-amino-9H-purin-9-yl)methyl)-6-(3,4-difluorophenyl)pyridin-3-yl)piperidine-4-carbonitrile]
1 to 10 nM | COC[C@@]1(N)CCCN(c2cnc(-c3ccc(F)c(Cl)c3)cc2Cn2cnc3c(N)ncnc32)C1 [Example 28, (R)-9-((5-(3-amino-3-(methoxymethyl)piperidin-1-yl)-2-(3-chloro-4-fluorophenyl)pyridin-4-yl)methyl)-9H-purin-6-amine]
1 to 10 nM | COc1ccc(-c2cc(Cn3cnc4c(N)ncnc43)c(N3CCC[C@](N)(COC4CC4)C3)cn2)cc1F [Example 31, (R)-9-((5-(3-amino-3-(cyclopropoxymethyl)piperidin-1-yl)-2-(3-fluoro-4-methoxyphenyl)pyridin-4-yl)methyl)-9H-purin-6-amine]
10 to 1000 nM | COCCC1(N)CCCN(c2cnc(-c3ccc(F)c(F)c3)cc2Cn2cnc3c(N)ncnc32)C1 (stereo not shown) [Example 60, 9-((5-(3-amino-3-(2-methoxyethyl)piperidin-1-yl)-2-(3,4-difluorophenyl)pyridin-4-yl)methyl)-9H-purin-6-amine]
10 to 1000 nM | NC(=O)C[C@@]1(N)CCCN(c2cnc(-c3ccc(F)c(F)c3)cc2Cn2cnc3c(N)ncnc32)C1 [Example 62, (S)-2-(3-amino-1-(4-((6-amino-9H-purin-9-yl)methyl)-6-(3,4-difluorophenyl)pyridin-3-yl)piperidin-3-yl)acetamide]
10 to 1000 nM | CN(C)C(=O)CC1(N)CCCN(c2cnc(-c3ccc(F)c(F)c3)cc2Cn2cnc3c(N)ncc(Cl)c32)C1 (stereo not shown) [Example 68, 2-(3-amino-1-(4-((4-amino-7-]
10 to 1000 nM | COC(=O)C[C@@]1(N)CCCN(c2cnc(-c3cccc(F)c3)cc2Cn2cnc3c(N)ncnc32)C1 [Example 73, methyl (S)-2-(3-amino-1-(4-((6-amino-9H-purin-9-yl)methyl)-6-(3-fluorophenyl)pyridin-3-yl)piperidin-3-yl)acetate]
10 to 1000 nM | Nc1ncnc2c1ncn2Cc1cc(-c2ccc(CNC(=O)CCl)cc2)ncc1N1CCCC(N)(CC(F)F)C1 (stereo not shown) [Example 75, N-(4-(5-(3-amino-3-(2,2-difluoroethyl)piperidin-1-yl)-4-((6-amino-9H-purin-9-yl)methyl)pyridin-2-yl)benzyl)-2-chloroacetamide]
> 1000 nM | N#CCC1(N)CCCN(c2cnc(-c3ccc(F)c(F)c3)cc2Cn2cnc3c(N)ncnc32)C1 (stereo not shown) [Example 77, 2-(3-amino-1-(4-((6-amino-9H-purin-9-yl)methyl)-6-(3,4-difluorophenyl)pyridin-3-yl)piperidin-3-yl)acetonitrile]
10 to 1000 nM | Nc1ncnc2c1ncn2Cc1cc(-c2ccc(F)c(F)c2)ncc1N1CCC[C@](N)(C(=O)NC2CCOCC2)C1 [Example 82, (R)-3-amino-1-(4-((6-amino-9H-purin-9-yl)methyl)-6-(3,4-difluorophenyl)pyridin-3-yl)-N-(tetrahydro-2H-pyran-4-yl)piperidine-3-carboxamide]
10 to 1000 nM | Nc1ncnc2c1ncn2Cc1cc(-c2ccc(F)c(F)c2)ncc1N1CCC[C@](N)(C(=O)N2CCCC2)C1 [Example 84, (R)-(3-amino-1-(4-((6-amino-9H-purin-9-yl)methyl)-6-(3,4-difluorophenyl)pyridin-3-yl)piperidin-3-yl)(pyrrolidin-1-yl)methanone]
10 to 1000 nM | CC1CCCN1C(=O)C1(N)CCCN(c2cnc(-c3ccc(F)c(F)c3)cc2Cn2cnc3c(N)ncnc32)C1 (stereo not shown) [Example 88, (3-amino-1-(4-((6-amino-9H-purin-9-yl)methyl)-6-(3,4-difluorophenyl)pyridin-3-yl)piperidin-3-yl)(2-methylpyrrolidin-1-yl)methanone]
1 to 10 nM | Nc1ncnc2c1ncn2Cc1cc(-c2ccc(F)c(F)c2)ncc1N1CCCC(N)(C(=O)C2CCCC2)C1 (stereo not shown) [Example 100, (3-amino-1-(4-((6-amino-9H-purin-9-yl)methyl)-6-(3,4-difluorophenyl)pyridin-3-yl)piperidin-3-yl)(cyclopentyl)methanone]
> 1000 nM | Nc1ncnc2c1ncn2Cc1cc(-c2ccc(F)c(F)c2)ncc1N1CCCC(N)(C(=O)C2CCOC2)C1 (stereo not shown) [Example 111, (3-amino-1-(4-((6-amino-9H-purin-9-yl)methyl)-6-(3,4-difluorophenyl)pyridin-3-yl)piperidin-3-yl)(tetrahydrofuran-3-yl)methanone]
> 1000 nM | CC1(C(=O)C2(N)CCCN(c3cnc(-c4ccc(F)c(F)c4)cc3Cn3cnc4c(N)ncnc43)C2)COC1 (stereo not shown) [Example 112, (3-amino-1-(4-((6-amino-9H-purin-9-yl)methyl)-6-(3,4-difluorophenyl)pyridin-3-yl)piperidin-3-yl)(3-methyloxetan-3-yl)methanone]
1 to 10 nM | COc1c(-c2ccc(F)c(F)c2)ncc(N2CCC[C@](N)([C@H](O)C(F)F)C2)c1Cn1cnc2c(N)ncnc21 [Example 118, (S)-1-((R)-3-amino-1-(4-((6-amino-9H-purin-9-yl)methyl)-6-(3,4-difluorophenyl)-5-methoxypyridin-3-yl)piperidin-3-yl)-2,2-difluoroethan-1-ol]
1 to 10 nM | Nc1ncnc2c1ncn2Cc1cc(-c2cc(F)c(C(F)F)cc2F)ncc1N1CCC[C@](N)([C@H](O)C(F)F)C1 [Example 120, (S)-1-((R)-3-amino-1-(4-((6-amino-9H-purin-9-yl)methyl)-6-(4-(difluoromethyl)-2,5-difluorophenyl)pyridin-3-yl)piperidin-3-yl)-2,2-difluoroethan-1-ol]
1 to 10 nM | Cc1cc(C(F)F)c(F)cc1-c1cc(Cn2cnc3c(N)ncnc32)c(N2CCC[C@](N)([C@@H](O)C(F)F)C2)cn1 [Example 129, (R)-1-((R)-3-amino-1-(4-((6-amino-9H-purin-9-yl)methyl)-6-(4-(difluoromethyl)-5-fluoro-2-methylphenyl)pyridin-3-yl)piperidin-3-yl)-2,2-difluoroethan-1-ol]
10 to 1000 nM | COc1ccc(-c2ncc(N3CCC[C@](N)([C@H](O)C(F)F)C3)c(Cn3cnc4c(N)ncnc43)c2F)c(F)c1 [Example 135, (S)-1-((R)-3-amino-1-(4-((6-amino-9H-purin-9-yl)methyl)-5-fluoro-6-(2-fluoro-4-methoxyphenyl)pyridin-3-yl)piperidin-3-yl)-2,2-difluoroethan-1-ol]
10 to 1000 nM | Nc1ncnc2c1ncn2Cc1cc(-c2ccc(C(F)F)cc2F)ncc1N1CCC[C@](N)([C@H](O)C(F)F)C1 [Example 137, (S)-1-((R)-3-amino-1-(4-((6-amino-9H-purin-9-yl)methyl)-6-(4-(difluoromethyl)-2-fluorophenyl)pyridin-3-yl)piperidin-3-yl)-2,2-difluoroethan-1-ol]
10 to 1000 nM | Cc1cc(C(F)F)ccc1-c1cc(Cn2cnc3c(N)ncnc32)c(N2CCC[C@](N)([C@H](O)C(F)F)C2)cn1 [Example 140, (S)-1-((R)-3-amino-1-(4-((6-amino-9H-purin-9-yl)methyl)-6-(4-(difluoromethyl)-2-methylphenyl)pyridin-3-yl)piperidin-3-yl)-2,2-difluoroethan-1-ol]
10 to 1000 nM | Nc1ncnc2c1ncn2Cc1c(N2CCC[C@](N)([C@H](O)C(F)F)C2)cnc(-c2ccc(F)cc2F)c1F [Example 142, (S)-1-((R)-3-amino-1-(4-((6-amino-9H-purin-9-yl)methyl)-6-(2,4-difluorophenyl)-5-fluoropyridin-3-yl)piperidin-3-yl)-2,2-difluoroethan-1-ol]
10 to 1000 nM | Cn1ncc2cc(-c3cc(Cn4cnc5c(N)ncnc54)c(N4CCC[C@](N)([C@H](O)C(F)F)C4)cn3)c(F)cc21 [Example 143, (S)-1-((R)-3-amino-1-(4-((6-amino-9H-purin-9-yl)methyl)-6-(6-fluoro-1-methyl-1H-indazol-5-yl)pyridin-3-yl)piperidin-3-yl)-2,2-difluoroethan-1-ol]
